Experimental findings from US11311543B2, “Compositions and methods for inhibiting PTPN22” (YALE UNIVERSITY, priority 2016, dated 2022) are described below.

The test system of this data set is PTPN22. Put plainly: PTPN22 expression by western blot in shRNA-transduced RAMOS B cell line. Conditions: human RAMOS B cell line, GFP+ shRNA+ vs GFP-. The data set is classed as cell-based. As for the experimental part: FIG. 10A depicts flow cytometry analysis of Ramos B cells transduction efficiency. Ramos B cells were transduced with three different GFP-tagged shRNA PTPN22 expressing lentiviruses and probed for GFP expression. […] Percentage of knock-down is indicated. FIG. 10B depicts the frequencies of polyreactive new emigrant B cells from sorted GFP− fractions were determined. […] For each B-cell fraction, the frequency of reactive (filled area) and non-reactive (open area) clones is summarized in pie charts with the total number of clones tested indicated in the center. FIG. 10C depicts the frequencies of HEp-2 reactive new emigrant B cells from sorted GFP− fractions were determined. […] For each B-cell fraction, the frequency of reactive (filled area) and non-reactive (open area) clones is summarized in pie charts with the total number of clones tested indicated in the center. FIG. 10D depicts the frequencies of antinuclear new emigrant B cells are compared between GFP− and GFP+ shRNA+ new emigrant B cells. […]
Total cell lysates were separated by SDS page, transferred to PVDF membranes, probed with mouse anti-PTPN22 (Invitrogen) and detected by chemiluminescence (Amersham ECL Prime Western Blotting detection Reagent) using a GBox documentation system (Syngene). For quantification, blots were stripped with stripping buffer (Pierce) and reprobed with a mouse anti-β-Actin antibody (Sigma-Aldrich).
Background: In western blotting, separated proteins are transferred to a membrane and probed.

On to “#3: shRNA targeting human PTPN22, 5′-AAGAATCCACCTGACTTCC-3′”, for which the “inhibition of PTPN22 expression detected by western blot” value is recorded as “about 80%”.
